# Assay results taken from US20200155731A1, “DEVICE AND METHOD FOR PROMOTING RAPID STRUT COVERAGE AND VASCULAR ENDOTHELIAL COVERAGE” (priority 2017, published 2020).
# Legend:
# human VSMC [1] = experiment: VSMC proliferation in bottles containing human VSMC, vehicle nanoparticles (DSPE-PEG); type: cell-based
# Text: […], 2 distearoyl-sn-glycero-3-phosphoethanolamine-Nmethxy (polyethyleneglycol)-2000 (DSPE-PEG) as a drug and gene silencer carrying vehicle instead of lentiviruses and plasmids which were used in the previous experiments. That being so, 8 groups were included for both assessment of nanoparticles as a vehicle and final confirmation of the previous results: control (nanoparticles only), MYH11-siRNA in nanoparticles, CNN1-siRNA in nanoparticles, sirolimus in nanoparticles, paclitaxel in nanoparticles, TNFRSF11B-siRNA in nanoparticles, NCF4-siRNA in nanoparticles, and MYL9-siRNA+GAPDH in nanoparticles.
# (§1) The groups of sirolimus in nanoparticles and paclitaxel in nanoparticles were included to compare the efficacy in inhibiting VSMC proliferation. The groups of NFRSF11B-siRNA in nanoparticles and NCF4-siRNA in nanoparticles were tested again with a different vehicle for final confirmation of the negative results. The group of MYL9-siRNA+GAPDH in nanoparticles was studied to evaluate the vehicle efficacy, that is, to ensure that gene silencers would enter VSMC and EC using nanoparticles as a vehicle. […] MYL9-siRNA gene silencer was marked with GAPDH for later verification of its transfection into the cells through fluorescence microscopy. Finally, pure nanoparticles were used as a vehicle control, that is, with neither drug nor gene silencer. […]
# human VSMC [2] = experiment: VSMC proliferation in bottles containing human VSMC, gene silencers vehicle lentivirus and plasmid; type: cell-based; conditions: Experiment 2; lentivirus vehicle for siRNA; FIG. 1
# Method: (§2) Therefore, Experiment 2 was carried out with the following groups: lentivirus+gene silencer TNFRSF11B-siRNA, lentivirus+gene silencer NCF4-siRNA, full control (no vehicle and no drug), lentivirus+gene silencer SM22a-siRNA+glyceraldehyde 3-phosphate dehydrogenase (GAPDH) (vehicle control 1), lentivirus+gene silencer MYH11-siRNA+GAPDH (vehicle control 2), sirolimus (drug control 1), and paclitaxel (drug control 2).
# (§3) TNFRSF11B-siRNA and NCF4-siRNA are gene silencers of the TNFRSF11B and NCF4 genes, respectively. The delivery system of gene silencers was developed by inserting the respective gene silencers in a plasmid which is carried by a lentivirus. Lentivirus particles are intracellular transduction-ready viruses containing plasmids with gene silencers. After transduction, cells express permanently gene silencers. The density of cell cultures 24 hours before transfection was 2×10^5 cells/10 cm2 in culture medium. […]
# (§4) Two control groups containing a lentivirus and a gene silencer of smooth muscle protein 22α (SM22α) or smooth muscle myosin heavy chain (MYH11) were used to assess the vehicle. […] Thus, said two gene silencers, SM22α-siRNA and MYH11-siRNA, were marked with glyceraldehyde 3-phosphate dehydrogenase (GAPDH), called bioconjugates, to ensure by means of fluorescence microscopy that the gene silencers effectively entered VSMC and EC. […]
# human EC = experiment: EC proliferation in bottles containing human EC, vehicle nanoparticles (DSPE-PEG); type: cell-based; conditions: Experiment 5, control nanoparticles only, FIG. 7
# Method: Experiment 5 was carried out by using nanoparticles of 1, 2 distearoyl-sn-glycero-3-phosphoethanolamine-Nmethxy (polyethyleneglycol)-2000 (DSPE-PEG) as a drug and gene silencer carrying vehicle instead of lentiviruses and plasmids which were used in the previous experiments. That being so, 8 groups were included for both assessment of nanoparticles as a vehicle and final confirmation of the previous results: control (nanoparticles only), MYH11-siRNA in nanoparticles, CNN1-siRNA in nanoparticles, sirolimus in nanoparticles, paclitaxel in nanoparticles, TNFRSF11B-siRNA in nanoparticles, NCF4-siRNA in nanoparticles, and MYL9-siRNA+GAPDH in nanoparticles.
# as §1, with “microscopy.” for “microscopy. Finally, pure nanoparticles were used as a vehicle control, that is, with neither drug nor gene silencer.”
# human vascular EC = experiment: EC proliferation in bottles containing human EC, gene silencers vehicle lentivirus and plasmid; type: cell-based; conditions: Experiment 2; lentivirus vehicle for siRNA; FIG. 2
# Method: as §2, §3, §4
# swine coronary arteries = experiment: In vivo study in swine: stent deployment in the coronary arteries, intravascular ultrasound follow-up; design: species or system Large White swine
# Text: Experiment 6 was an in vivo study in swine comparing MYH11-siRNA-eluting stent and CNN1-siRNA-eluting stent with bare metal stent and sirolimus-eluting stent.
# Eighteen commercially available bare metal stents 2.75×15 mm were covered with MYH11-siRNA in nanoparticles (9 stents) or CNN1-siRNA in nanoparticles (9 stents) using a spray nozzle machine to create an abluminal cover in order to deliver the gene silencers locally in the inner surface of the vessel.
# The hybrid lipid-polymer nanoparticles loaded with gene silencers (siRNA) were prepared by the nanoprecipitation method. The aqueous phase consisted of the gene silencer solubilized in 10 mL of water Milli Q under stirring and at a bath temperature of 30° C. The organic phase containing a lipid-cationic compound DSPE-PEG-NH2 (1,2-distearoyl-sn-glycero-3-phosphoethanolamine-N-[amino(polyethyleneglycol)-2000] and the PLGA polymer was then injected into the aqueous phase using a 20 G needle, the suspension being kept under moderate stirring for 5 minutes and then concentrated to a final volume of 10 mL in a rotatory evaporator to eliminate the organic solvent and adjust the final concentration. MYH11-siRNA and CNN1-siRNA concentrations ranging from 10 μg/ml to 100 μg/ml were tested.
# After covering the abluminal surface of the 18 stents with MYH11-siRNA in nanoparticles (9 stents) or CNN1-siRNA in nanoparticles (9 stents), the stents were left to dry during 60 minutes, packaged in DuPont Tyvek™ and then sterilized with ethylene oxide (EtO) at 50 C.
# Nine Large White swine were submitted to stent deployment in the coronary arteries, 1 stent being deployed in the left anterior descendent (LAD), 2 stents in the circumflex (CX) and 1 stent in the right coronary artery (RCA). The stents were deployed in a diameter ratio of 1.1 in relation to the coronary artery diameter, that is, with a mild oversize, in order to stimulate a similar inflammatory reaction that causes in-stent restenosis, to evaluate the efficacy of the gene silencers in controlling in-stent neointimal hyperplasia in a in vivo model. This oversized stent deployment protocol was previously validated (Lowe H C, Schwartz R S, Mac Neill B D, Jang I K, Hayase M, Rogers C, et al. The porcine coronary model of in-stent restenosis: Current status in the era of drug-eluting stents. Catheter Cardiovasclnterv. 2003:60:515-23.)
# The prolonged time of stent re-endothelialization is the critical point of the current commercially available drug-eluting stents. So sirolimus and analogues as paclitaxel decrease the proliferation of vascular smooth muscle cells preventing in-stent neointimal hyperplasia, as well as suppress the proliferation of endothelial cells prolonging the time of stent re-endothelialization. […] Therefore, in order to evaluate the time of stent re-endothelialization, angiographic and intravascular ultrasound follow-up were scheduled at 30, 90 and 180 days after stent deployment.
# The intravascular ultrasound analysis was performed tracing 31 frames for each stent with 0.5 mm apart each frame from the distal stent border to the proximal stent border. The data were analysed using one-way ANOVA with Bonferroni post hoc test.
# The data of intravascular ultrasound in the index procedure as well as the results regarding in-stent neointimal proliferation at 30, 90 and 180 days after stent deployment are shown in table 1, while the comparative data of intravascular ultrasound regarding stent re-endothelialization at 30, 90 and 180 days after stent deployment are shown in table 2.
# [3] = 180 days after stent deployment
# [4] = intravascular ultrasound, follow-up (time not specified)
Structure (SMILES),"inhibition of VSMC proliferation in comparison with the control (human VSMC [1]; Experiment 5, control nanoparticles only, FIG. 6)",VSMC cell proliferation as compared to the full control group (human VSMC [2]),EC proliferation compared to the control group (human EC),EC cell proliferation in relation to the full control group (human vascular EC),"human VSMC proliferation (human VSMC [1]; Experiment 7, FIG. 8) [%]",Obstruction: average of percentual obstruction in the whole stent length (swine coronary arteries; 30 days after stent deployment) [%],re-endothelialization (stent struts coverage) from intravascular ultrasound (swine coronary arteries; 30 days after stent deployment) [%],Obstruction: average of percentual obstruction in the whole stent length (swine coronary arteries; 90 days after stent deployment) [%],re-endothelialization (stent struts coverage) from intravascular ultrasound (swine coronary arteries; 90 days after stent deployment) [%],Obstruction: average of percentual obstruction in the whole stent length (swine coronary arteries; [3]) [% b],re-endothelialization (stent struts coverage) from intravascular ultrasound (swine coronary arteries; [3]) [%],"LLL: late lumen loss (swine coronary arteries; intravascular ultrasound, follow-up) [mm]",MLA (minimal luminal area) follow-up (swine coronary arteries; [4]) [mm^2 b],MLD (minimal luminal diameter) follow-up (swine coronary arteries; [4]) [mm]
CC(=O)O[C@H]1C(=O)[C@@]2(C)[C@H]([C@H](OC(=O)c3ccccc3)[C@]3(O)C[C@H](OC(=O)[C@H](O)[C@@H](NC(=O)c4ccccc4)c4ccccc4)C(C)=C1C3(C)C)[C@]1(OC(C)=O)CO[C@@H]1C[C@@H]2O [paclitaxel],significant inhibition,statistically significant inhibition,statistically significant inhibition,statistically significant inhibition,,,,,,,,,,
CO[C@H]1C[C@@H]2CC[C@@H](C)[C@@](O)(O2)C(=O)C(=O)N2CCCC[C@H]2C(=O)O[C@H]([C@H](C)C[C@@H]2CC[C@@H](O)[C@H](OC)C2)CC(=O)[C@H](C)/C=C(\C)[C@@H](O)[C@@H](OC)C(=O)[C@H](C)C[C@H](C)/C=C/C=C/C=C/1C [sirolimus],,,,,19,11.4 ± 2.2,48 ± 3.3,12.3 ± 2.1,89 ± 3.8,13.8 ± 2.4,100,0.33 ± 0.12,6.21 ± 0.16,2.68 ± 0.13
